Patent US5397796A, “2,4-dioxoimidazolidine compounds and compositions, and processes for administering same” (Cassella AG, priority 1992, dated 1995)
Read-outs that look alike come from different tables or passages of the source.

Tests used:
[1] = tested on: gel-filtered human platelets; assay: Inhibition of aggregation of gel-filtered human platelets after ADP or thrombin stimulation; type: cell-based
Experimental: (§1) The compounds are tested in particular for their inhibitory action in blood platelet aggregation and the adhesion of fibrinogen to blood platelets. Gel-filtered blood platelets from human donor blood are used, which are activated with ADP or thrombin.
As a functional test, the inhibition of aggregation of gel-filtered human platelets by the compounds according to the invention is measured after ADP or thrombin stimulation. The IC50 value of the inhibition is given.

[2] = biological target: T1, fibrinogen receptor (glycoprotein IIb/IIIa) (Homo sapiens, UniProt P05106+P08514); assay: Inhibition of binding of 125I-fibrinogen to its receptor on intact, gel-filtered human platelets; conditions: inhibition of 125I-fibrinogen binding, stimulation with ADP (10 μM), read-out: Ki (μM), ADP-stimulated
T1 construct: endogenous in cells; host or cells: gel-filtered human platelets from donor blood, stimulated with ADP (10 µM)
Experimental: as §1
The inhibition of the binding of fibrinogen to its receptor (glycoprotein IIb/IIIa) by the compounds according to the invention is tested on intact, gel-filtered human platelets. The Ki value of the inhibition of binding of ^125 I-fibrinogen after stimulation with ADP (10 μM) is given.

[3] = Platelet, ADP stimulation, read-out: IC50 (μM), ADP-stimulated
[4] = Platelet, thrombin stimulation, read-out: IC50 (μM), Thrombin-stimulated
[5] = ADP stimulation, read-out: IC50 (μM), ADP-stimulated
[6] = thrombin stimulation, read-out: IC50 (μM), Thrombin-stimulated

T1 sequence (P08514 32-887 limits assumed): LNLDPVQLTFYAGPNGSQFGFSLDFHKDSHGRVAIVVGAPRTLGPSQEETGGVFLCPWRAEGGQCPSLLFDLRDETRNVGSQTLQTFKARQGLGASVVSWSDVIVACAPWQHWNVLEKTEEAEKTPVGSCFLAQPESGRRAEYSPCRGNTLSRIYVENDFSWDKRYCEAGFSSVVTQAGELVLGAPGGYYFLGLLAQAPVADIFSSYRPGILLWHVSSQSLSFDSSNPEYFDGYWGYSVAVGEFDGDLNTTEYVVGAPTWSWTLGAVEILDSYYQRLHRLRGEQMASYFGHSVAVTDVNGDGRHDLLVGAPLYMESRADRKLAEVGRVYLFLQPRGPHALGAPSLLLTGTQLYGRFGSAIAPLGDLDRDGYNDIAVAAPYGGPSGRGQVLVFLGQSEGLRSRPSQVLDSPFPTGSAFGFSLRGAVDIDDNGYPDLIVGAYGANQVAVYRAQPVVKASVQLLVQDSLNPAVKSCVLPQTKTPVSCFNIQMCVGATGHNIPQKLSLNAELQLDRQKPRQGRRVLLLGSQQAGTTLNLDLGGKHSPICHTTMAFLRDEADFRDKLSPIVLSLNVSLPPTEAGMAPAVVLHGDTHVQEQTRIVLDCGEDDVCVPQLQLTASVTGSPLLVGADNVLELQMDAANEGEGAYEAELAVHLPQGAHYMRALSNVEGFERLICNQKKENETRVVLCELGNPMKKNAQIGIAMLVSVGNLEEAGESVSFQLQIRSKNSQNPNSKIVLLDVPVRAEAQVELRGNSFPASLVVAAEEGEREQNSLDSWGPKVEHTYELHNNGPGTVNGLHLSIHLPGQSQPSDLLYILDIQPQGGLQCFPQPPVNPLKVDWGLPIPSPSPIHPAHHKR
T1 sequence (P08514 891-1039 partner limits assumed): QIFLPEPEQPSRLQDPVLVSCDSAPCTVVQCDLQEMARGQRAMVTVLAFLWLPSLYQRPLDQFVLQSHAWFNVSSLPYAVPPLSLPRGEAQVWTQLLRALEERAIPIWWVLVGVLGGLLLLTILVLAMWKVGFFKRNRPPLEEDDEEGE
T1 sequence (P05106 27-788): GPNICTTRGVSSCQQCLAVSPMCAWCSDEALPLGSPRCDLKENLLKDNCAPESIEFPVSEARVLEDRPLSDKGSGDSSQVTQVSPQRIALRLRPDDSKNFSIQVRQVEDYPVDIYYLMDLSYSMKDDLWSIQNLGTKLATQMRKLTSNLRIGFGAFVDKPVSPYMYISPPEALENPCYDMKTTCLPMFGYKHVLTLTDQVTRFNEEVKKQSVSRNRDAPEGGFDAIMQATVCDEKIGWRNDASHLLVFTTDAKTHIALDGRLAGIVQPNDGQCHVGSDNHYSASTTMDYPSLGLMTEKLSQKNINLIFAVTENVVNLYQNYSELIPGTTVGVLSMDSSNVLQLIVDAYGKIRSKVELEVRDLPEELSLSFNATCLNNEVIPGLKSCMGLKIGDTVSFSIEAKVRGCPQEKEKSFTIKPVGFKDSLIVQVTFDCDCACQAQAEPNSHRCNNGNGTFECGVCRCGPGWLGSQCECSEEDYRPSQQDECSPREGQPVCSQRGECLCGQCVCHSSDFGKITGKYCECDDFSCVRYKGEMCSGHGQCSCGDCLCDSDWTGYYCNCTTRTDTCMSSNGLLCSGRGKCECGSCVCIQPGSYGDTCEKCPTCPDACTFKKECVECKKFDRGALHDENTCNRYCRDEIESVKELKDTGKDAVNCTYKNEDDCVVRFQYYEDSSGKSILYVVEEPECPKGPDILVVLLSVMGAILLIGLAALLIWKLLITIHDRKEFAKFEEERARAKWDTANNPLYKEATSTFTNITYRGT

N=C(N)NCCC[C@@H]1NC(=O)N(CC(=O)N[C@@H](CC(=O)O)C(=O)N[C@@H](Cc2ccccc2)C(=O)NCCCCN)C1=O [Example 1, (5-(S)-(3-Guanidinopropyl)-2,4-dioxoimidazolidin-3-yl)acetyl-L-aspartyl-L-phenylalanine (4-aminobutyl) amide acetate]
IC50 [1, 3]: 1.5 µM | IC50 [1, 4]: 2 µM | Ki [2]: 2.5 µM

N=C(N)NCCC[C@@H]1NC(=O)N(CC(=O)N[C@@H](CC(=O)O)C(=O)N[C@@H](Cc2ccccc2)C(=O)NCCCCCCN)C1=O [Example 2, (5-(S)-(3-Guanidinopropyl)-2,4-dioxoimidazolidin-3-yl)acetyl-L-aspartyl-L-phenylalanine (6-aminohexyl) amide acetate]
IC50 [1, 3]: 3 µM | IC50 [1, 4]: 3.5 µM | Ki [2]: 2.44 µM

N=C(N)NCCC[C@@H]1NC(=O)N(CC(=O)N[C@@H](CC(=O)O)C(=O)N[C@@H](Cc2ccccc2)C(=O)NCCCCCCCCN)C1=O [Example 3, (5-(S)-(3-Guanidinopropyl)-2,4-dioxoimidazolidin-3-yl)acetyl-L-aspartyl-L-phenylalanine (8-aminooctyl) amide acetate]
IC50 [1, 3]: 5 µM | IC50 [1, 4]: 3 µM | Ki [2]: 3.21 µM

N=C(N)c1ccc(CC2NC(=O)N(CC(=O)N[C@@H](CC(=O)O)C(=O)N[C@@H](Cc3ccccc3)C(=O)NCCCCN)C2=O)cc1 (stereo partly drawn) [Example 4, (5-(R,S)-(4-Formamidinobenzyl)-2,4-dioxoimidazolidin-3-yl)acetyl-L-aspartyl-L-phenylalanine (4-aminobutyl) amide acetate]
IC50 [1, 5]: 0.45 µM | IC50 [1, 6]: 1 µM | Ki [2]: 0.32 µM

N=C(N)c1ccc(CC2NC(=O)N(CC(=O)N[C@@H](CC(=O)O)C(=O)N[C@@H](CCCCN)C(=O)NCCCCN)C2=O)cc1 (stereo partly drawn) [Example 7, (5-(R,S)-(4-Formamidino-benzyl)-2,4-dioxoimidazolidin-3-yl)acetyl-L-aspartyl-L-lysine (4-aminobutyl) amide]
IC50 [1, 5]: 0.25 µM | IC50 [1, 6]: 0.6 µM | Ki [2]: 0.17 µM
